{
  "source": "patent US20110269790A1",
  "about": "“NOVEL THIENOPYRIDINES AS PHARMACOLOGICALLY ACTIVE AGENTS” (priority 2009, published 2011)",
  "key": {"Wistar rats": {"tested_on": "Wistar rats", "assay": "Carrageenan induced paw edema model", "type": "in vivo, rat", "conditions": "Rattus norvegicus, test compounds 100 mg/kg oral, Indomethacin 10 mg/kg oral, 3 hrs after Carrageenan", "protocol": "Male Albino Wistar rats of 150-180 grams were used for the experiments.\nAnti-inflammatory activity of test compounds was evaluated in Wistar rats employing the method of Winter et al (1963) and Diwan et al (1989). Male Wistar rats were used for the study. […] The different test compounds were administered to the animals in the test group at the dose of 100 mg/kg, by oral route. Animals in the standard group received Indomethacin at the dose of 10 mg/kg, by oral route. All test and standard compounds were administered as 1% gum acacia suspension. Rats in the control group received the vehicle solution without drugs. One hour after test drugs administration, rats in all the groups were challenged with 0.1 ml of 1% Carrageenan in the sub plantar region of right hind paw. A zero hour paw volume was measured for all the rats using digital plethysmometer (Ugo Basile, Italy) before the administration of carrageenan for all groups. Paw volumes were again measured 3 hrs after the challenge of Carrageenan. The percent inhibition of paw volume for each rat in treated groups was calculated by comparing with mean paw volume of control group and expressed as mean (±SE) percent inhibition of paw volume for each test. In a preliminary study the compounds that have shown good activity were evaluated for dose response study by using above procedure."}, "[1]": {"tested_on": "A431 (Skin cancer) cell lines", "assay": "MTT assay, A431", "type": "cell-based", "conditions": "Homo sapiens, A-431; MTT, 48 hrs; read-out: A431 cell lines IC50", "protocol": "(§1) A431 (Skin cancer), Colo-205 (Colon cancer), A549 (Lung cancer) cell lines were obtained from National Center for Cell science (NCCS), Pune, India. DMEM (Dulbeccos Modified Eagles Medium), MTT [3-(4,5-dimethylthiazol-2-yl)-2,5-diphenyl tetrazolium bromide], Trypsin, EDTA were purchased from Sigma Chemicals Co (St. Louis, Mo.), Fetal bovine serum were purchased from Arrow labs, 96 well flat bottom tissue culture plates were purchased from Tarson.\n(§2) A431, Colo-205, A549 cell lines were grown as adherent cells in DMEM media supplemented with 10% fetal bovine serum, 100 μg/ml penicillin, 200 μg/ml streptomycin, 2 mM L-glutamine, and culture was maintained in a humidified atmosphere with 5% CO2. Stock solution of 10 mg/ml was prepared for test molecules in DMSO. From the stock, various dilutions were made with sterile water to get required concentration. A431, Colo-205, A549 cell lines were seeded at a density of 1×10^4 cells (cell number was determined by Trypan blue exclusion dye method) per each well in 100 μl of DMEM supplemented with 10% FBS. 12 hrs after seeding, above media was replaced with fresh DMEM supplemented with 10% FBS. Then, 10 μl sample from above stock solutions were added to each well in triplicates which gives final concentration of 100, 50, 25, 10 μg/well. The above cells were incubated for 48 hrs at 37° C. with 5% CO2. After 48 hrs incubation the above media was replaced with 100 μl of fresh DMEM with out FBS and to this 10 μl of MTT (5 mg dissolved in 1 ml of PBS) was added and incubated for 3 hrs at 37° C. with 5% CO2. After 3 hrs of incubation, the above media was removed with multi channel pipette, then 200 μl of DMSO was added to each well and incubated at 37° C. for 15 min. Finally, the plate was read at 570 nm using spectrophotometer (Spectra Max, Molecular devices)."}, "Colo-205 (Colon cancer)": {"tested_on": "Colo-205 (Colon cancer)", "assay": "MTT assay, Colo-205", "type": "cell-based", "conditions": "Homo sapiens, COLO 205; MTT, 48 hrs; read-out: Colo-205 IC50", "protocol": "as §1, §2"}, "A549 (Lung cancer)": {"tested_on": "A549 (Lung cancer)", "assay": "MTT assay, A549", "type": "cell-based", "conditions": "Homo sapiens, A549; MTT, 48 hrs; read-out: A549 IC50", "protocol": "as §1, §2"}, "mice": {"tested_on": "mice", "assay": "Adenosine mediated bronchoconstriction and lung inflammation in an allergic mouse model", "type": "in vivo", "design": "Total count: unit not given here", "conditions": "BAL fluid cells; 100 mg/kg oral", "protocol": "Thienopyridines were proven as potent cytotoxic and anti-inflammatory agents in the previous experimental results. In cytotoxic MTT assay, activity of these molecules may be due to the involvement of adenosine receptors. Further, to find the bronchodilatory activity of these moieties and to find the involvement of adenosine receptors in their action, non-invasive and invasive adenosine mediated bronchoconstriction and lung inflammation in an allergic mouse model was performed.\nMale mice, 6-8 weeks of age, free of specific pathogens were obtained from National Institute of Nutrition. The animals were maintained on a ragweed-free diet. All experimental protocols used in this study were under a protocol approved by animal ethical committee. Sensitization was performed according to the modified procedure described by Fan et al, 2002. Mice were sensitized on days 1 and 6 with i.p. injections of ragweed allergen (200 μg/200 μl of water for injection). Non-sensitized control animals received only water for injection with the same volumes. Ten days after sensitization, the mice were placed in plexiglas chamber and challenged with 0.5% ragweed or with 0.9% saline as a control for twenty minutes both in the morning and evening for three days. Then mice were divided into different groups consisting of six animals each. The groups including a control without sensitization; a sensitized group and a standard group along with groups of the test molecules were separated. Twenty-four hours after last challenge with ragweed, the mice were given an oral dose of test molecules and theophylline (100 mg/kg body weight) as acacia suspension. Two hours after administration of the oral dose, the mice were challenged with adenosine solution (24 mg/ml). The variation in respiration was recorded after anaesthetizing them with pentobarbitone sodium (0.1 ml 200 mg/ml ip) using kymograph. Then, mice were sacrificed and trachea was cannulated to collect the bronchoalveolar lavage fluid. This was performed by pumping 1 ml phosphate buffered saline into lungs through tracheal cannula and collecting the sample. Analysis of BAL fluid was performed to get the cellular differentials. The BAL fluid was centrifugated at 1500 rpm for six minutes at room temparature. After removing the supernatant, BAL cells were resuspended in 1 ml of phosphate buffered saline. Total cells were then counted manually in a hemocytometer chamber. A differential count of at least 300 cells was made according to the standard morphologic criteria and results were mentioned in table."}, "[2]": {"tested_on": "crude intestinal α-glucosidase", "assay": "In-vitro mammalian (rat intestinal) α-glucosidase inhibition assay", "type": "biochemical", "text": "Chemicals: α-Glucosidase [(EC 3.2.1.20) Type I: from bakers yeast], rat intestinal acetone powder (as a source of crude intestinal α-glucosidase), α-amylase [EC 3.2.1.1) Type VI B: from porcine pancreas], p-nitrophenyl α-D-glucopyranoside, 3,5-dinitro salicylic acid, soluble potato starch and 1-deoxyrojirimycine, were purchased from Sigma Chemical Co., St Louis, Mo., USA. Other chemicals of analytical grade were procured from indigenous manufacturers.\nIn-vitro a-Glucosidase Inhibition Assay: Yeast and intestinal a-glucosidase inhibitory activities were determined as per reported methods (Babu et al., 2004; Mc Dougall et al., 2005). Rat intestinal acetone powder in normal saline (100% w/v) was sonicated properly and the supernatant was used as a source of crude intestinal a-glucosidase after centrifugation. In brief, 20 μl, of test samples (100 mg/ml DMSO solution) were reconstituted in 100 μl of 100 mM-Phosphate buffer (pH 6.8) in a 96-well microplate and incubated with 50 μl yeast a-glucosidase (0.76 μ/ml in same buffer) or crude intestinal a-glucosidase for 5 min before 50-μl substrate (5 mM, […] prepared in same buffer) was added. Release of p-nitrophenyol was measured at 405 nm spectrophotometrically (Spectra Mas Plus 384, Molecular Device corporation, Sunnyvale, Calif., USA) 5 min after incubation with substrate, individual blank for test samples were prepared to correct background absorbance where the substrate was replaced with 50 μl of buffer. The control sample contained 20 μl DMSO in place of test samples. The percentage of enzyme inhibition was calculated as (A−B/A)×100 where A is represents the absorbance of the control without test samples, and B represents the absorbance in the presence of test samples. […] The IC50 values were calculated by applying logarithmic regression analysis from the mean inhibitory values."}},
  "data": [
    {"molecule": "Cc1sc2nc3c(c(N)c2c1C)CCC(C)C3", "note": "(stereo not drawn) [BN-3, 2,3,7-Trimethyl-5,6,7,8-tetrahydrothieno[2,3-b]quinolin-4-amine]", "values": [
      {"measurement": "change in vivo at 100 mg/kg", "setting": "Wistar rats; read-out: % Increase in Paw Volume", "result": "81.4 ± 21", "unit": "%"},
      {"measurement": "inhibition in vivo at 100 mg/kg", "setting": "Wistar rats; read-out: % Inhibition (paw volume)", "result": "23.2 ± 5.15", "unit": "%"},
      {"measurement": "IC50", "setting": "[1]", "result": 33.8, "unit": "µg/mL"},
      {"measurement": "IC50", "setting": "Colo-205 (Colon cancer)", "result": 100, "unit": "µg/mL"},
      {"measurement": "IC50", "setting": "A549 (Lung cancer)", "result": 43.6, "unit": "µg/mL"},
      {"measurement": "Differential count (%) Eosinophils", "setting": "mice", "result": 14, "unit": "%"},
      {"measurement": "Differential count (%) Lymphocytes", "setting": "mice", "result": 75, "unit": "%"},
      {"measurement": "Differential count (%) Monocytes", "setting": "mice", "result": 15, "unit": "%"},
      {"measurement": "Total count", "setting": "mice", "result": 14.5},
      {"measurement": "Mammalian α-glucosidase inhibitory activity (in words)", "setting": "[2]", "result": "moderate inhibitory activity"},
      {"measurement": "Mammalian α Glucosidase Inhibition (Mean ± S.E)", "setting": "[2]; highest concentration 5 mg/ml", "result": "46.07 ± 0.9", "unit": "%"},
      {"measurement": "melting point", "result": 220, "unit": "°C"}
    ]}
  ]
}
